The source made the active and inactive calls. No cut-off for these calls is given here.
Experiments:
[1] = test system: Mus musculus; assay: Reduction of amyloid beta in Tg2576 mouse plasma at 2.5 mg/kg/day; assay type: functional; design: scale not given: the % may be the effect or the level left
[2] = test system: Mus musculus; assay: Reduction of amyloid beta in Tg2576 mouse brain at 2.5 mg/kg/day; assay type: functional; design: scale not given: the % may be the effect or the level left
[3] = test system: Mus musculus; assay: Induction of hyperproliferative skin lesions assessed as epidermal hyperplasia in Nct+/- C57BL/6;129Svi mouse at 2.5 mg/kg/day; assay type: functional, organism-based
[4] = test system: Fibroblast; assay: Inhibition of Nct-/- C57BL/6;129Svi mouse fibroblast cell proliferation; assay type: functional, cell-based
[5] = test system: Fibroblast; assay: Inhibition of EGF induced Nct-/- C57BL/6;129Svi mouse fibroblast cell proliferation at 5 uM; assay type: functional, cell-based
[6] = test system: Fibroblast; assay: Inhibition of EGF induced Nct+/+ C57BL/6129Svi mouse fibroblast cell proliferation at 5 uM; assay type: functional, cell-based; conditions: C57BL/6

Compound	Activity [1]	Activity [2]	Activity [3]	Activity [4]	Activity [5]	Activity [6]
C[C@H](NC(=O)[C@@H](O)c1cc(F)cc(F)c1)C(=O)N[C@@H]1C(=O)N(C)c2ccccc2-c2ccccc21	>90%	>70%	Active			
COc1cc2ncnc(Nc3cccc(Cl)c3)c2cc1OC				Active	Active	inactive

Reference: ChEMBL document CHEMBL1156510, “Epidermal growth factor receptor and notch pathways participate in the tumor suppressor function of gamma-secretase” (2007)
